From patent US9120779B2, “Inhibitors of HCV NS5A” (PRESIDIO PHARMACEUTICALS, INC., priority 2008, dated 2015)

Tested on: HCV genotype 1b replicon in Huh 7 cells
Assay: HCV replicon assay (luciferase readout, 1b_Huh-Luc/Neo-ET cell line)
Assay type: cell-based
Conditions: Hepatitis C virus, Huh-7, 72 h, read-out: Inhibition of HCV genotype 1b, Table 1, 72 h incubation
Method in brief: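 Huh 7 cells carrying a bicistronic genotype 1b luciferase replicon treated with compound in triplicate for 72 h. Replicon level read as luciferase activity (Bright-Glo), expressed as % of control; EC50 from a sigmoidal Hill-slope fit, repeated several times.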

Compound	EC50 [nM]
COC(=O)N[C@H](C(=O)N1CCC[C@H]1c1ncc(-c2ccc([C@H]3CC[C@H](c4cnc([C@@H]5CCCN5C(=O)[C@@H](c5ccccc5)N(C)C)[nH]4)CC3)cc2)[nH]1)C(C)C [compound 940]	< 1
COC(=O)N[C@H](C(=O)N1CCC[C@H]1c1ncc(-c2ccc([C@H]3CC[C@H](c4cnc([C@@H]5CCCN5C(=O)[C@H](C(C)C)N(C)C)[nH]4)CC3)cc2)[nH]1)C(C)C [compound 941]	< 1
COC(=O)N[C@H](C(=O)N1CCC[C@H]1c1ncc(-c2ccc([C@H]3CC[C@H](c4cnc([C@@H]5CCCN5C(=O)[C@@H](NC(=O)OC)C5CC5)[nH]4)CC3)cc2)[nH]1)C1CC1 [compound 942]	< 1
CC[C@H](C)[C@H](NC(=O)OC)C(=O)N1CCC[C@H]1c1ncc(-c2ccc([C@H]3CC[C@H](c4cnc([C@@H]5CCCN5C(=O)[C@@H](NC(=O)OC)[C@@H](C)CC)[nH]4)CC3)cc2)[nH]1 [compound 943]	< 1
COC(=O)N[C@H](C(=O)N1CCC[C@H]1c1ncc(-c2ccc([C@H]3CC[C@H](c4cnc([C@@H]5CCCN5C(=O)[C@H](NC(=O)NC5CCOCC5)C(C)C)[nH]4)CC3)cc2)[nH]1)C(C)C [compound 944]	< 1
COC(=O)N[C@H](C(=O)N1CCC[C@H]1c1ncc(-c2ccc([C@H]3CC[C@H](c4cnc([C@@H]5CCCN5C(=O)[C@@H](NC(=O)OC5CCOCC5)C(C)C)[nH]4)CC3)cc2)[nH]1)C(C)C [compound 945]	< 1
COC(=O)N[C@H](C(=O)N1CCC[C@H]1c1ncc(-c2ccc([C@H]3CC[C@H](c4cnc([C@@H]5CCCN5C(=O)[C@H](NC(=O)OC5CCOCC5)C(C)C)[nH]4)CC3)cc2)[nH]1)C(C)C [compound 946]	< 1
COC(=O)N[C@H](C(=O)N1CCC[C@H]1c1ncc(-c2ccc([C@H]3CC[C@H](c4cnc([C@@H]5CCCN5C(=O)[C@@H](c5ccccc5)N5CCCCC5)[nH]4)CC3)cc2)[nH]1)C(C)C [compound 947]	< 1
COC(=O)N[C@H](C(=O)N1CCC[C@H]1c1ncc(-c2ccc([C@H]3CC[C@H](c4cnc([C@@H]5CCCN5C(=O)[C@H](NC(=O)OC)c5ccccc5)[nH]4)CC3)cc2)[nH]1)C(C)C [compound 2001]	< 1
COC(=O)N[C@H](C(=O)N1CCC[C@H]1c1ncc([C@H]2CC[C@H](c3ccc(-c4cnc([C@@H]5CCCN5C(=O)[C@H](NC(=O)OC)c5ccccc5)[nH]4)cc3)CC2)[nH]1)C(C)C [compound 2002]	< 1
COC(=O)N[C@H](C(=O)N1CCC[C@H]1c1ncc(-c2ccc([C@H]3CC[C@H](c4cnc([C@@H]5CCCN5C(=O)[C@H](NC(=O)N5CCC(O)CC5)c5ccccc5)[nH]4)CC3)cc2)[nH]1)C(C)C [compound 2003]	< 1
CNC(=O)N[C@H](C(=O)N1CCC[C@H]1c1ncc(-c2ccc([C@H]3CC[C@H](c4cnc([C@@H]5CCCN5C(=O)[C@H](NC(=O)OC)c5ccccc5)[nH]4)CC3)cc2)[nH]1)C(C)C [compound 2004]	< 1
COC(=O)N[C@H](C(=O)N1CCC[C@H]1c1ncc(-c2ccc([C@H]3CC[C@](C)(c4cnc([C@@H]5CCCN5C(=O)[C@@H](NC(=O)OC)C(C)C)[nH]4)CC3)cc2)[nH]1)C(C)C [compound 2005]	< 1
COC(=O)N[C@@H](C(=O)N1CCC[C@H]1c1ncc(-c2ccc([C@H]3CC[C@](C)(c4cnc([C@@H]5CCCN5C(=O)[C@H](NC(=O)OC)c5ccccc5)[nH]4)CC3)cc2)[nH]1)c1ccccc1 [compound 2006]	< 1

Same assay, conditions: Hepatitis C virus, Huh-7, 72 h, read-out: Inhibition of HCV genotype 1b, Table 3, 72 h incubation

Compound	EC50 [nM]
COC(=O)N[C@@H](C(=O)N1CCC[C@H]1c1ncc(-c2cc(F)c(N3CCC(C)(c4cnc([C@@H]5CCCN5C(=O)[C@H](NC(=O)OC)c5ccccc5)[nH]4)CC3)c(F)c2)[nH]1)c1ccccc1 [compound 2028]	< 1

Same assay, conditions: Hepatitis C virus, Huh-7, 72 h, read-out: Inhibition of HCV genotype 1b, Table 4, 72 h incubation

Compound	EC50 [nM]
O=C(N[C@@H](C(=O)N1CCC[C@H]1c1nc2ccc(-c3ccc(-c4ccc5nc([C@@H]6CCCN6C(=O)[C@H](NC(=O)C6CC6)c6ccccc6)[nH]c5c4)cc3)cc2[nH]1)c1ccccc1)C1CC1 [compound 930]	< 1
COC(=O)N[C@H](C(=O)N[C@@H](C)c1nc2ccc(-c3ccc(-c4ccc5nc([C@H](C)NC(=O)[C@@H](NC(=O)OC)C(C)C)[nH]c5c4)cc3)cc2[nH]1)C(C)C [compound 932]	< 1
COC(=O)N[C@H](C(=O)N1CCC[C@H]1c1nc2ccc(-c3ccc(-c4ccc5nc([C@@H]6CCCN6C(=O)[C@H](C(C)C)N(C)C)[nH]c5c4)cc3)cc2[nH]1)C(C)C [compound 933]	< 1
COC(=O)N[C@H](C(=O)N1CCC[C@H]1c1nc2ccc(-c3ccc(-c4ccc5nc([C@@H]6CCCN6C(=O)[C@@H](C(C)C)N(C)C)[nH]c5c4)cc3)cc2[nH]1)C(C)C [compound 934]	< 1
COC(=O)N[C@H](C(=O)N1CCC[C@H]1c1nc2ccc(-c3ccc(-c4ccc5nc([C@H](C)NC(=O)[C@H](C(C)C)N(C)C)[nH]c5c4)cc3)cc2[nH]1)C(C)C [compound 935]	< 1
COC(=O)N[C@H](C(=O)N1CCC[C@H]1c1nc2ccc(-c3ccc(-c4ccc5nc([C@H](C)NC(=O)[C@@H](C(C)C)N(C)C)[nH]c5c4)cc3)cc2[nH]1)C(C)C [compound 936]	< 1
COC(=O)N[C@H](C(=O)N[C@@H](C)c1nc2ccc(-c3ccc(-c4ccc5nc([C@@H]6CCCN6C(=O)[C@H](C(C)C)N(C)C)[nH]c5c4)cc3)cc2[nH]1)C(C)C [compound 937]	1 to 9.9
COC(=O)N[C@H](C(=O)N[C@@H](C)c1nc2ccc(-c3ccc(-c4ccc5nc([C@@H]6CCCN6C(=O)[C@@H](C(C)C)N(C)C)[nH]c5c4)cc3)cc2[nH]1)C(C)C [compound 938]	< 1
COC(=O)N[C@H](C(=O)N1CCC[C@H]1c1nc2ccc(-c3ccc(-c4ccc5nc([C@H](C)NC(=O)[C@@H](c6ccccc6)N(C)C)[nH]c5c4)cc3)cc2[nH]1)C(C)C [compound 939]	< 1
COC(=O)N[C@@H](C(=O)N1CCC[C@H]1c1nc2ccc(-c3ccc(-c4ccc5nc([C@@H]6CCCN6C(=O)[C@H](NC(=O)OC)C(C)C)[nH]c5c4)cc3)cc2[nH]1)C(C)C [compound 2035]	10 to 999
COC(=O)N[C@H](C(=O)N1CCC[C@H]1c1nc2ccc(-c3cnc(-c4ccc5nc([C@@H]6CCCN6C(=O)[C@@H](NC(=O)OC)C(C)C)[nH]c5c4)cn3)cc2[nH]1)C(C)C [compound 2036]	< 1
COC(=O)N[C@H](C(=O)N[C@@H](C)c1nc2ccc(-c3ccc(-c4ccc5nc([C@@H]6CCCN6C(=O)[C@@H](c6ccccc6)N(C)C)[nH]c5c4)cc3)cc2[nH]1)C(C)C [compound 2037]	< 1
COC(=O)N[C@H](C(=O)N1CCC[C@H]1c1nc2ccc(-c3ccc(-c4ccc5nc([C@@H]6CCCN6C(=O)[C@@H](c6ccccc6)N(C)C)[nH]c5c4)cc3)cc2[nH]1)C(C)C [compound 2038]	< 1
COC(=O)N[C@H](C(=O)N1CCC[C@H]1c1nc2ccc(-c3ccc(-c4ccc5nc([C@@H]6CCCN6C(=O)[C@@H](NC(=O)OC)C6CCOCC6)[nH]c5c4)cc3)cc2[nH]1)C1CCOCC1 [compound 2039]	< 1
COC(=O)N[C@H](C(=O)N1CCC[C@H]1c1nc2ccc(-c3ccc(-c4ccc5nc([C@@H]6CCCN6C(=O)[C@@H](NC(=O)OC)C6CCOCC6)[nH]c5c4)cc3)cc2[nH]1)C(C)C [compound 2040]	< 1

Same assay, conditions: Hepatitis C virus, Huh-7, 72 h, read-out: Inhibition of HCV genotype 1b, Table 5, 72 h incubation

Compound	EC50 [nM]
COC(=O)N(C)[C@H](C(=O)N1CCC[C@H]1c1ncc(-c2ccc(C34CCC(c5cnc([C@@H]6CCCN6C(=O)[C@H](C(C)C)N(C)C(=O)OC)[nH]5)(CC3)CC4)cc2)[nH]1)C(C)C [compound 913]	< 1
COC(=O)N[C@H](C(=O)N1CCC[C@H]1c1ncc(C23CCC(c4ccc(-c5cnc([C@@H]6CCCN6C(=O)[C@@H](NC6CCOCC6)C(C)C)[nH]5)cc4)(CC2)CC3)[nH]1)C(C)C [compound 914]	10 to 999
COC(=O)N[C@H](C(=O)N1CCC[C@H]1c1ncc(C23CCC(c4ccc(-c5cnc([C@@H]6CCCN6C(=O)[C@H](NC6CCOCC6)C(C)C)[nH]5)cc4)(CC2)CC3)[nH]1)C(C)C [compound 915]	< 1
COC(=O)N[C@@H](C)C(=O)N1CCC[C@H]1c1ncc(-c2ccc(C34CCC(c5cnc([C@@H]6CCCN6C(=O)[C@H](C)NC(=O)OC)[nH]5)(CC3)CC4)cc2)[nH]1 [compound 916]	< 1
COC(=O)N[C@H](C)C(=O)N1CCC[C@H]1c1ncc(-c2ccc(C34CCC(c5cnc([C@@H]6CCCN6C(=O)[C@@H](C)NC(=O)OC)[nH]5)(CC3)CC4)cc2)[nH]1 [compound 917]	< 1
COC(=O)N[C@H](C(=O)N1CCC[C@H]1c1ncc(-c2ccc(C34CCC(c5cnc([C@@H]6CCCN6C(=O)[C@@H](Nc6ncccn6)C(C)C)[nH]5)(CC3)CC4)cc2)[nH]1)C(C)C [compound 918]	< 1
CC(C)[C@@H](C(=O)N1CCC[C@H]1c1ncc(-c2ccc(C34CCC(c5cnc([C@@H]6CCCN6C(=O)[C@H](C(C)C)N(C)C)[nH]5)(CC3)CC4)cc2)[nH]1)N(C)C [compound 919]	10 to 999
CC(C)[C@H](C(=O)N1CCC[C@H]1c1ncc(-c2ccc(C34CCC(c5cnc([C@@H]6CCCN6C(=O)[C@@H](C(C)C)N(C)C)[nH]5)(CC3)CC4)cc2)[nH]1)N(C)C [compound 920]	10 to 999
COC(=O)N[C@H](C(=O)N1CCC[C@H]1c1ncc(-c2ccc(C34CCC(c5cnc([C@@H]6CCCN6C(=O)[C@@H](c6ccccc6)N(C)C)[nH]5)(CC3)CC4)cc2)[nH]1)C(C)C [compound 2051]	< 1
COC(=O)N[C@@H](C(=O)N1CCC[C@H]1c1ncc(-c2ccc(C34CCC(c5cnc([C@@H]6CCCN6C(=O)[C@@H](NC(=O)N6CCOCC6)C(C)C)[nH]5)(CC3)CC4)cc2)[nH]1)c1ccccc1 [compound 2052]	< 1
COC(=O)N[C@H](C(=O)N1CCC[C@H]1c1ncc(-c2ccc(C34CCC(c5cnc([C@@H]6CCCN6C(=O)[C@@H](NC(=O)OC6CCOCC6)C(C)C)[nH]5)(CC3)CC4)cc2)[nH]1)C(C)C [compound 2053]	1 to 9.9
